US7659252B2, “Transdermal delivery peptides and method of use thereof” (Novomed Technologies, Inc. (Shanghai), priority 2005, dated 2010)

Columns and labels:
[1] = tested on: male Sprague-Dawley rats; test: Transdermal PT-141 delivery: penile erections, chasing, mounting; assay type: in vivo, rat; conditions: cream, 1 h observation
Description: All behavioral studies were performed from 9:00 am to 4:00 pm at 24±1° C. While the animals were anesthetized with Urethane, the hair in an area of approximately 3.0 cm×3.0 cm in the interscapular region was carefully trimmed using scissors, with caution not to damage the skin (rats with any visible sign of skin damage were not used). Rats were allowed to recover for at least 24 hours before the experiments. One hundred ul cream containing indicated amounts of PT-141 was placed on the exposed skin and spread evenly using the side of a pipet tip.
Testing rats were divided into four groups with each group contain 6 rats.
Immediately after administration, rats were placed into individual polystyrene cages (32 cm long, 30 cm wide, 30 cm high) for behavioral observation. […] According to methods described by Berendsen and Broekkamp (1987, Eur. J. Pharmacol. 135(3):279-87), a penile erection was present when the following is observed: repeated pelvic thrust immediately followed by an upright position, an emerging engorged penis which the rat licks while eating the ejaculate. In addition, chasing was observed when the male moves forward along the female's side with its mouth licking the female's genital area, while mounting was present when the male's both front feet are off the ground and plant on the female's rump without ejaculation (Naby et al., 1992, Horm. Behav. 26:24; Randy et al., 1995, Nature 378:383).

[2] = tested on: streptozotocin-induced diabetic rats; test: Transdermal insulin delivery: serum insulin and blood glucose; assay type: in vivo, rat; conditions: for transdermal activity for delivering insulin compared to TD-1 / Blood Glucose Mean: 500 μg peptide + 70 μg insulin topical; for transdermal activity for delivering insulin compared to TD-1: 5 hrs; for Blood Glucose Mean: 5 hr value as % of the 0 hr value
Description: Insulin delivery: In particular, male Wistar rats were given intraperitoneal injection of straptozotocin (60 mg/kg; Sigma-Aldrich, St. Louis, […].) to make these rats in diabetic states. Seven to 10 days post injection blood glucose level was measured using One-Touch Ultra Glucometer (LifeScan, Milpitas, Calif.). The straptozocin-induced (SD-induced) diabetic rats with blood glucose level of over 20 mmol/l (normal rats are between 4 and 6 mmol/l) were selected and randomly assigned to different treatment groups, with 6 rats for each group. […] The SLA/PP is a chemical enhancer combination recently identified from high-throughput screening (Karande et al., […], Nature Biotech. 22:192). Moreover, in other transdermal treatment groups, 100 μl saline was given to each rat in that group. For the subcutaneous treatment group, 14 μg of insulin per rat was injected.
Blood was drawn from the rat tail vein at these time points and assayed for blood glucose as described above and serum insulin by radioimmunoassay (Immunotech, Czech).
Blood glucose and serum insulin were measured before and 5 hrs. after the administration as described above.

[3] = tested on: hair follicles; test: Microscopy of skin sections: hair follicle penetration; assay type: in vivo, rat; conditions: 10 μg insulin-FITC co-administered with enhancer, 2 h, abdominal skin
Description: In particular, Insulin-FITC (Xi-an Huacheng, Xi-an, China) was dissolved in a small amount of DMF and subsequently diluted in saline for topical administration (final DMF concentration was <0.2%). […] After 2 hours the skin was carefully cleaned by 70% isopropyl alcohol and harvested by dissecting. The isolated skin was fixed with ice-cold 4% paraformaldehyde in 0.1 M phosphate buffer (PH 7.4) overnight. Following several washes with 10 mM phosphate-buffered saline (PBS PH7.4), skin samples were immersed in PBS containing 4.5% sucrose for 24 hours and then dehydrated in 10 mM PBS containing 30% sucrose till deposition. Floating horizontal and vertical sections with a thickness of 20 μm were obtained on a freezing microtome (CM1900 LEICA, Heidelberger, Nussloch, Germany). Cryosections were mounted onto poly-L-lysine-coated glasses, dried at room temperature and enveloped with 10 μl […] Mounting Medium (Vector Laboratories, Burlingame, Calif.). Fluorescence photomicrographs of the sections were obtained with OLYMPUS IX-70 microscope (OLYMPUS, Tokyo, Japan) using a filter set having excitation and emission length at 490-495 nm and 520-530 nm, respectively.

[4] = tested on: Male Wistar rats; test: Phage delivery across trimmed abdominal skin, phage titre in tail-vein blood; assay type: in vivo, rat
Description: Phage delivery: Male Wistar rats (180 g to 220 g) were housed at a constant temperature (22° C.) and relative humidity (60%) with a fixed 12 hr. light/dark cycle, and free access to food and water. While the animals were anesthetized with Vrethane (5 ml/kg of 20% solution), the hair in an area of approximately 3.0 cm×3.0 cm on the abdomen was carefully trimmed using scissors, with caution not to damage the skin (rats with any visible sign of skin damage were not used). […] One hour after the phage administration blood was withdrawn from the tail vein and immediately assayed for phage titre according to manufacturer's protocol.

[5] = tested on: male Sprague-Dawley rats; test: Transdermal apomorphine delivery, APO-induced penile erections; assay type: in vivo, rat; conditions: peptide 2.0 mg/kg + APO 0.8 mg/kg, cream, 2 h observation
Description: All behavioral studies were performed from 9:00 am to 4:00 pm at 24±1° C. While the animals were anesthetized with Urethane, the hair in an area of approximately 3.0 cm×3.0 cm in the interscapular region was carefully trimmed using scissors, with caution not to damage the skin (rats with any visible sign of skin damage were not used). Rats were allowed to recover for at least 24 hours before the experiments. One hundred ul cream containing indicated amounts of apomorphine (APO) was placed on the exposed skin and spread evenly using the side of a pipet tip.
Immediately after administration, rats were placed into individual polystyrene cages (32 cm long, 30 cm wide, 30 cm high) for behavioral observation. […] According to methods described by Berendsen and Broekkamp (1987, Eur. J. Pharmacol. 135(3):279-87), a penile erection was present when the following is observed: repeated pelvic thrust immediately followed by an upright position, an emerging engorged penis which the rat licks while eating the ejaculate.

[6] = DLS measurements of insulin with or without TD-1; assay type: physicochemical
Description: The solutions were transferred to a centrifuge tube and spun for 10 min at 10000 rpm. 40 μl of the supernatant were filtered by ANODISC™ membrane filter with a pore size of 0.02 μm (Whatman International, Maidstone, UK) and taken for DLS measurement using DynaPro™ MS 800 (Wyatt technology Corporation/Protein Solutions, Santa Barbara, Calif.).

[7] = co-administered TD-1 fixed at 500 μg, 5 hours

Compound: CCCC[C@H](NC(C)=O)C(=O)N[C@H]1CC(=O)NCCCC[C@@H](C(=O)O)NC(=O)[C@H](Cc2c[nH]c3ccccc23)NC(=O)[C@H](CCCNC(=N)N)NC(=O)[C@@H](Cc2ccccc2)NC(=O)[C@H](Cc2c[nH]cn2)NC1=O [PT-141, Ac-Nle-Asp-His-D-Phe-Arg-Trp-Lys-OH]
- numbers of PEs, chasing and mounting ([1]; PT-141 160 μg/kg alone): did not significantly increase

Compound: ACSSSPSAHCG [TD-22]
- transdermal activity for delivering insulin compared to TD-1 [2]: statistically significant loss of activity
- Blood Glucose Mean [2]: 85.90%

Compound: ACNATLPHQCG [AP-1, reference compound]
- elevating serum insulin and lowering blood glucose levels ([2]; control enhancer co-administered with 70 μg insulin, topical): ineffective
- follicular penetration of insulin-FITC [3]: did not lead to follicular penetration
- numbers of PEs, chasing and mounting ([1]; PT-141 160 μg/kg + peptide 240 μg/kg): did not significantly increase
- transdermal activity relative to phage PH-1 ([4]; 1 hour post topical administration): less than 0.2%
- effect on transdermal activity of phages carrying the TD-2 peptide (PH-1) ([4]; peptide topically co-administered with PH-1): no effect
- effect on APO transdermal delivery (APO-induced penile erections) [5]: no effect

Compound: ACSSSSSKHCG [TD-10]
- transdermal activity for delivering insulin compared to TD-1 [2]: only a slight, insignificant decrease in activity
- Blood Glucose Mean [2]: 53.79%

Compound: ACSSSPSDHCG [TD-4]
- transdermal activity for delivering insulin compared to TD-1 [2]: almost completely loss of activity
- Blood Glucose Mean [2]: 89.68%

Compound: ACSASPSKHCG [TD-24]
- transdermal activity for delivering insulin compared to TD-1 [2]: statistically significant loss of activity
- Blood Glucose Mean [2]: 82.17%

Compound: CSSSPSKHC [TD-2]
- transdermal activity for delivering insulin compared to TD-1 [2]: statistically significant loss of activity
- Blood Glucose Mean [2]: 68.44%

Compound: insulin: pharmaceutical-grade (>98%, 30 IU/mg) porcine insulin (Xuzhou Pharmaceuticals)
- duration of insulin-elevating and glucose-lowering effect ([2]; 14 μg insulin, subcutaneous injection): less than 5 hours
- insulin amount needed to achieve the maximum response [2, 7]: ≥ 70 µg
- insulin amount sufficient to significantly enhance serum insulin and lower blood glucose [2, 7]: 35 µg
- MW-R Mean ([6]; pH 2.0, saline): 14,585 Da
- Radius Mean ([6]; pH 2.0, saline): 1.9 nm
- MW-R Mean ([6]; pH 2.0, saline, listed as Ins): 14585 Da
- MW-R Mean ([6]; pH 3.0, saline): 20,343 Da
- Radius Mean ([6]; pH 3.0, saline): 2.2 nm
- MW-R Mean ([6]; pH 3.0, saline, listed as Ins): 20343 Da
- MW-R Mean ([6]; pH 7.0, saline): 32,328 Da
- Radius Mean ([6]; pH 7.0, saline): 2.6 nm
- MW-R Mean ([6]; pH 7.0, saline, listed as Ins): 32328 Da

Compound: ACSSSASKHCG [TD-3]
- transdermal activity for delivering insulin compared to TD-1 [2]: almost completely loss of activity
- Blood Glucose Mean [2]: 89.80%

Compound: ACSSSPSKACG [TD-23]
- transdermal activity for delivering insulin compared to TD-1 [2]: statistically significant loss of activity
- Blood Glucose Mean [2]: 81.36%

Compound: ACSSSPAKHCG [TD-6]
- transdermal activity for delivering insulin compared to TD-1 [2]: statistically significant loss of activity
- Blood Glucose Mean [2]: 66.65%
